# How the values were obtained:
# Type in all cases: ADME, Microsome
# Liver microsomes [1] = assay: Metabolic stability in rat liver microsomes assessed as covalent binding at 10 uM after 1 hr by scintillation counting in absence of NADPH
# Liver microsomes [2] = assay: Metabolic stability in rat liver microsomes assessed as covalent binding at 10 uM after 1 hr preincubated for 15 mins with NADPH by scintillation counting
# Liver microsomes [3] = assay: Metabolic stability in human liver microsomes assessed as covalent binding at 10 uM after 1 hr preincubated for 15 mins with NADPH by scintillation counting
# Liver microsomes [4] = assay: Metabolic stability in human liver microsomes assessed as covalent binding at 10 uM after 1 hr by scintillation counting in absence of NADPH
# Liver microsomes [5] = assay: Metabolic stability in rat liver microsomes assessed as covalent binding at 10 uM after 1 hr by scintillation counting in presence of glutathione
smiles,measurement,setting,value
C[C@@H](CO)Oc1cc(Oc2ccc(S(C)(=O)=O)cc2)cc(C(=O)Nc2nccs2)c1,Stability,Liver microsomes [1],0 pmolequiv/mg
same,Stability,Liver microsomes [2],378 pmolequiv/mg
same,Stability,Liver microsomes [3],715 pmolequiv/mg
same,Stability,Liver microsomes [4],10 pmolequiv/mg
same,Stability,Liver microsomes [5],50 pmolequiv/mg

# From ChEMBL document CHEMBL1154966, “Metabolic activation of N-thiazol-2-yl benzamide as glucokinase activators: Impacts of glutathione trapping on covalent binding” (Bioorg Med Chem Lett, 2010)
